Data published in patent US5672715A, “Herbicidal substituted 3-aryl-pyrazoles” (Monsanto Company, priority 1995, dated 1997).

Columns and labels:
Assay type in all cases: in vivo
[1] = test system: Rape; experiment: post-emergence herbicide test; details: post-emergence, 0.25 lb/A; read-out: % plant inhibition
Outline: (§1)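 Each pan is moved to a spraying chamber when plants are two to three weeks old and sprayed by atomizer at 10 psig, delivering 1870 L/Ha containing about 0.4% by volume emulsifier. Greenhouse-grown from seed; percent inhibition scored.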

[2] = test system: Corn; experiment: post-emergence herbicide test; details: Zea mays, post-emergence, 0.25 lb/A; read-out: % plant inhibition
Outline: as §1

[3] = test system: Birdseye Speedwell; experiment: post-emergence herbicide test; details: post-emergence, 0.25 lb/A; read-out: % plant inhibition
Outline: as §1

[4] = test system: Wild Oats; experiment: post-emergence herbicide test; details: Avena fatua, post-emergence, 0.25 lb/A; read-out: % plant inhibition
Outline: as §1

[5] = test system: Downy Brome; experiment: post-emergence herbicide test; details: Bromus tectorum, post-emergence, 0.25 lb/A; read-out: % plant inhibition
Outline: as §1

[6] = test system: Morning Glory; experiment: post-emergence herbicide test; details: Ipomoea, post-emergence, 0.25 lb/A; read-out: % plant inhibition
Outline: as §1

[7] = test system: Barnyardgrass; experiment: post-emergence herbicide test; details: Echinochloa crus-galli, post-emergence, 0.25 lb/A; read-out: % plant inhibition
Outline: as §1

[8] = test system: Bedstraw Catchweed; experiment: post-emergence herbicide test; details: Galium aparine, post-emergence, 0.25 lb/A; read-out: % plant inhibition
Outline: as §1

[9] = test system: Green Foxtail; experiment: post-emergence herbicide test; details: Setaria viridis, post-emergence, 0.25 lb/A; read-out: % plant inhibition
Outline: as §1

[10] = test system: Velvetleaf; experiment: post-emergence herbicide test; details: Abutilon theophrasti, post-emergence, 0.25 lb/A; read-out: % plant inhibition
Outline: as §1

[11] = test system: Seedling Johnsongrass; experiment: post-emergence herbicide test; details: Sorghum halepense, post-emergence, 0.25 lb/A; read-out: % plant inhibition
Outline: as §1

[12] = test system: Soybean; experiment: post-emergence herbicide test; details: Glycine max, post-emergence, 0.25 lb/A; read-out: % plant inhibition
Outline: as §1

[13] = test system: Giant Foxtail; experiment: post-emergence herbicide test; details: Setaria faberi, post-emergence, 0.25 lb/A; read-out: % plant inhibition
Outline: as §1

[14] = test system: Wheat; experiment: post-emergence herbicide test; details: Triticum aestivum, post-emergence, 0.25 lb/A; read-out: % plant inhibition
Outline: as §1

[15] = test system: Blackgrass; experiment: post-emergence herbicide test; details: Alopecurus myosuroides, post-emergence, 0.25 lb/A; read-out: % plant inhibition
Outline: as §1

[16] = test system: Cocklebur; experiment: post-emergence herbicide test; details: Xanthium strumarium, post-emergence, 0.25 lb/A; read-out: % plant inhibition
Outline: as §1

[17] = test system: Common Chickweed; experiment: post-emergence herbicide test; details: post-emergence, 0.25 lb/A; read-out: % plant inhibition
Outline: as §1

[18] = test system: Rape; experiment: pre-emergence herbicide test; details: pre-emergence, 0.25 lb/A; read-out: % plant inhibition
Outline: (§2)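 Known amounts of active ingredient went into the cover soil over seeds sown in pans, either before or after the layer was spread. An initial 1/4 inch overhead irrigation was given in some cases; otherwise pans were subirrigated. Rating was % inhibition at ~14 days.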

[19] = test system: Corn; experiment: pre-emergence herbicide test; details: Zea mays, pre-emergence, 0.25 lb/A; read-out: % plant inhibition
Outline: as §2

[20] = test system: Birdseye Speedwell; experiment: pre-emergence herbicide test; details: pre-emergence, 0.25 lb/A; read-out: % plant inhibition
Outline: as §2

[21] = test system: Wild Oats; experiment: pre-emergence herbicide test; details: Avena fatua, pre-emergence, 0.25 lb/A; read-out: % plant inhibition
Outline: as §2

[22] = test system: Downy Brome; experiment: pre-emergence herbicide test; details: Bromus tectorum, pre-emergence, 0.25 lb/A; read-out: % plant inhibition
Outline: as §2

[23] = test system: Morning Glory; experiment: pre-emergence herbicide test; details: Ipomoea, pre-emergence, 0.25 lb/A; read-out: % plant inhibition
Outline: as §2

[24] = test system: Barnyardgrass; experiment: pre-emergence herbicide test; details: Echinochloa crus-galli, pre-emergence, 0.25 lb/A; read-out: % plant inhibition
Outline: as §2

[25] = test system: Bedstraw Catchweed; experiment: pre-emergence herbicide test; details: Galium aparine, pre-emergence, 0.25 lb/A; read-out: % plant inhibition
Outline: as §2

[26] = test system: Green Foxtail; experiment: pre-emergence herbicide test; details: Setaria viridis, pre-emergence; 0.25 lb/A; read-out: % plant inhibition
Outline: as §2

[27] = test system: Velvetleaf; experiment: pre-emergence herbicide test; details: Abutilon theophrasti, pre-emergence, 0.25 lb/A; read-out: % plant inhibition
Outline: as §2

[28] = test system: Seedling Johnsongrass; experiment: pre-emergence herbicide test; details: Sorghum halepense, pre-emergence, 0.25 lb/A; read-out: % plant inhibition
Outline: as §2

[29] = test system: Soybean; experiment: pre-emergence herbicide test; details: Glycine max, pre-emergence, 0.25 lb/A; read-out: % plant inhibition
Outline: as §2

[30] = test system: Giant Foxtail; experiment: pre-emergence herbicide test; details: Setaria faberi, pre-emergence, 0.25 lb/A; read-out: % plant inhibition
Outline: as §2

[31] = test system: Wheat; experiment: pre-emergence herbicide test; details: Triticum aestivum, pre-emergence, 0.25 lb/A; read-out: % plant inhibition
Outline: as §2

[32] = test system: Blackgrass; experiment: pre-emergence herbicide test; details: Alopecurus myosuroides, pre-emergence, 0.25 lb/A; read-out: % plant inhibition
Outline: as §2

[33] = test system: Cocklebur; experiment: pre-emergence herbicide test; details: Xanthium strumarium, pre-emergence, 0.25 lb/A; read-out: % plant inhibition
Outline: as §2

[34] = test system: Common Chickweed; experiment: pre-emergence herbicide test; details: pre-emergence, 0.25 lb/A; read-out: % plant inhibition
Outline: as §2

Structure (SMILES)	inhibition at 280.212 g/ha [1] [%]	inhibition at 280.212 g/ha [2] [%]	inhibition at 280.212 g/ha [3] [%]	inhibition at 280.212 g/ha [4] [%]	inhibition at 280.212 g/ha [5] [%]	inhibition at 280.212 g/ha [6] [%]	inhibition at 280.212 g/ha [7] [%]	inhibition at 280.212 g/ha [8] [%]	inhibition at 280.212 g/ha [9] [%]	inhibition at 280.212 g/ha [10] [%]	inhibition at 280.212 g/ha [11] [%]	inhibition at 280.212 g/ha [12] [%]	inhibition at 280.212 g/ha [13] [%]	inhibition at 280.212 g/ha [14] [%]	inhibition at 280.212 g/ha [15] [%]	inhibition at 280.212 g/ha [16] [%]	inhibition at 280.212 g/ha [17] [%]	inhibition at 280.212 g/ha [18] [%]	inhibition at 280.212 g/ha [19] [%]	inhibition at 280.212 g/ha [20] [%]	further results
Cc1c(-c2cc(C(=O)OCSC#N)c(Cl)cc2F)nn(C)c1C(F)(F)F [Compound 50]	15	5	75	10	10	35	5	35	25	90	0	7	0	10	5	60	60	0	0	35	inhibition at 280.212 g/ha [21]: 0%; inhibition at 280.212 g/ha [22]: 5%; inhibition at 280.212 g/ha [23]: 0%; inhibition at 280.212 g/ha [24]: 25%; inhibition at 280.212 g/ha [25]: 25%; inhibition at 280.212 g/ha [26]: 10%; inhibition at 280.212 g/ha [27]: 40%; inhibition at 280.212 g/ha [28]: 0%; inhibition at 280.212 g/ha [29]: 0%; inhibition at 280.212 g/ha [30]: 0%; inhibition at 280.212 g/ha [31]: 0%; inhibition at 280.212 g/ha [32]: 5%; inhibition at 280.212 g/ha [33]: 0%; inhibition at 280.212 g/ha [34]: 35%
C=CCOC(=O)c1cc(-c2nn(C)c(C(F)(F)F)c2C)c(F)cc1Cl [Compound 54]	75	35	100	80	70	80	95	98	98	100	90	80	90	16	30	99	90	0	10	98	inhibition at 280.212 g/ha [21]: 30%; inhibition at 280.212 g/ha [22]: 75%; inhibition at 280.212 g/ha [23]: 40%; inhibition at 280.212 g/ha [24]: 100%; inhibition at 280.212 g/ha [25]: 80%; inhibition at 280.212 g/ha [26]: 100%; inhibition at 280.212 g/ha [27]: 100%; inhibition at 280.212 g/ha [28]: 99%; inhibition at 280.212 g/ha [29]: 5%; inhibition at 280.212 g/ha [30]: 99%; inhibition at 280.212 g/ha [31]: 5%; inhibition at 280.212 g/ha [32]: 35%; inhibition at 280.212 g/ha [33]: 35%; inhibition at 280.212 g/ha [34]: 90%
Cc1cc(-c2nn(C)c(C(F)(F)F)c2C)c(O)cc1Cl [Compound 16]	0	0	30	0	0	5	0	25	0	0	0	0	0	0	5	0	50	55	0	100	inhibition at 280.212 g/ha [21]: 20%; inhibition at 280.212 g/ha [22]: 20%; inhibition at 280.212 g/ha [23]: 0%; inhibition at 280.212 g/ha [24]: 0%; inhibition at 280.212 g/ha [25]: 45%; inhibition at 280.212 g/ha [26]: 10%; inhibition at 280.212 g/ha [27]: 0%; inhibition at 280.212 g/ha [28]: 0%; inhibition at 280.212 g/ha [29]: 0%; inhibition at 280.212 g/ha [30]: 0%; inhibition at 280.212 g/ha [31]: 0%; inhibition at 280.212 g/ha [32]: 15%; inhibition at 280.212 g/ha [33]: 0%; inhibition at 280.212 g/ha [34]: 95%
